{
  "source": "patent US20070265274A1",
  "about": "“4-(4-METHYLPIPERAZIN-1-YLMETHYL)-N-[4-METHYL-3-(4-PYRIDIN-3-YL)PYRIMIDIN-2-YLAMINO)PHENYL]-BENZAMIDE FOR TREATING MUTATED-RET KINASE ASSOCIATED DISEASES” (priority 2002, published 2007)",
  "key": {"[1]": {"tested_on": "NIH3T3 cells expressing constitutively active RET MEN2A (RETC634 mutation)", "conditions": "for % of cell decrease: SALT I 500 nM, 9 days", "experimental": "The RETC634 mutation is the most common germline mutation of the RET kinase occurring in 85% of multiple endocrine neoplasias type 2A. The effect of SALT I on growth of NIH3T3 cells stably expressing a constitutively active form of the RET kinase (RETC634 mutation) is investigated.\nNIH3T3 cells expressing constitutively active RET MEN2A are allowed to plate overnight in 6-well plates. They are then grown in the presence of 1 or 5% serum with SALT I 500 nM or with a vehicle solvent (control) for 9 days, with media changes every 3 days. Cells are counted after harvesting with EDTA/trypsin solution on day 9 after initiation of treatments."}, "RET/PTC3": {"tested_on": "RET/PTC3", "conditions": "100 nM SALT I; 25 min at room temperature; γP32-ATP", "protocol": "Cell Line: PCCL3, a rat thyroid cell line, is maintained in H4 complete medium consisting of Coon's medium/F12 high zinc supplemented with 5% FBS, 0.3 mg/ml L-glutamine, 1 mU/ml TSH, 10 μg/ml insulin, 5 μg/ml apo-transferrin, 10 nM hydrocortisone, and penicillin/streptomycin. […] Stable transfections are performed first to establish clonal lines constitutively expressing the transactivator rtTA (composed of a fusion of the rtetR DNA binding domain and the VP16 activation domain). Individual rtTA-expressing clones are then explored for doxycyclin-inducible expression by transient transfection with a luciferase reporter construct under control of a tet-operator.\nConfluent T-75 flasks of RET/PTC3 (PCCL3) cells incubated with or without doxycycline for 24 hours are washed with ice cold PBS containing 0.2 mM sodium ortho-vanadate. […] After the second wash, the reactions are boiled in 35 μl Laemmli buffer for 10 min, the proteins are subjected to SDS-PAGE (7.5%) and their phosphorylation measured by PhosphoImager densitrometry (Molecular Dynamics, Sunnyvale, Calif.) after transfer to nitrocellulose membranes. Protein loading is then normalized to total RET kinase protein determined by Western blot analysis using either the goat polyclonal anti-RET kinase antibody (Santa Cruz) or a mouse monoclonal (University of Cincinnati)."}, "[2]": {"tested_on": "PLCγ phosphorylation by RET/PTC", "conditions": "250 nM SALT I for 24 h; in comparison with samples without SALT I", "protocol": "To further explore the effect of SALT I on RET kinase activity, pretreatment with SALT I on PLCγ phosphorylation is examined.\nRet-PTC3 cells are seeded at 10^5 cells/well in 6-well Corning plates. After 3 days, cells are treated with or without doxycycline in the presence of 250 nM of SALT I for 24 h. Cells are rinsed twice with cold (phosphate buffered saline) PBS containing 0.1 mM sodium orthovanadate, and left for 20 minutes in ice-cold RIPA buffer shaking gently at 4° C. Cell lysates are collected by centrifugation at 10,600 g for 20 min at 4° C. Protein assays are performed on aliquots of supernatants by the Coomassie Blue assay (Pierce, Rockford, Ill.). Western blot analysis are performed by running 100 μg of protein on SDS PAGE (5%), transfer to nitrocellulose membrane and probing initially with anti-phospho PLCγ antibody (Cell Signaling) and then with anti-PLCγ (Cell Signaling) for normalization."}},
  "note": "Like-named read-outs stand apart in the source and are kept apart here.",
  "data": [
    {"smiles": "CS(=O)(=O)O.Cc1ccc(NC(=O)c2ccc(CN3CCN(C)CC3)cc2)cc1Nc1nccc(-c2cccnc2)n1", "note": "[SALT I]", "values": [
      {"measurement": "% of cell decrease", "setting": "[1]; 1% serum", "result": 42, "unit": "%"},
      {"measurement": "% of cell decrease", "setting": "[1]; 5% serum", "result": 15, "unit": "%"},
      {"measurement": "growth of RET kinase-transformed NIH3T3 fibroblasts", "setting": "[1]; result in words", "result": "inhibits the growth"},
      {"measurement": "inhibition of autophosphorylation of RET/PTC3", "setting": "RET/PTC3", "result": 40, "unit": "%"},
      {"measurement": "inhibition of phosphorylation of PLCγ", "setting": "[2]", "result": 28, "unit": "%"}
    ]}
  ]
}
